Test results reported in US20060084789A1, “Immunotherapeutic and immunoprphylactic reagents” (priority 2002, published 2006).

Tested on: RGP-specific TCL
Assay: TCL proliferation assay (3H-thymidine incorporation, stimulation index)
Format: cell-based, human
Conditions: for Proliferative response, stimulation index: peptides 10 μg/ml; for T cell responses to Lol p 5 peptides: 21 TCL tested; for Lol p 1 peptides recognised by one or more TCL: 34 TCL tested, all recognised with the exception of the four named
Method: Generation of Short-Term RGP-Specific TCL
PBMC were cultured in 24-well plates (Costar, Mass., USA) at 2.5×10^6 cells/well with RGP extract at a concentration of 25 or 50 μg/ml in RPMI 1640 medium (Gibco BRL, NY, USA) supplemented with 2 mM GlutaMAX I (Gibco BRL), 0.05 mg/ml gentamicin (David Bull Laboratories, Mulgrave, Victoria, Australia) and 5% heat-inactivated hunan AB^+ serum (Sigma, Mo., USA) for 7 days at 37° C. in a 5% CO2 humidified incubator. At day 7, cells were washed once and restimulated in 24-well plates at 5×10^5 cells/well width 25 or 50 μg/ml of RGP extract in the presence of 5×10^5 cells/well irradiated (3000 rads) autologous PBMC as a source of antigen presenting cells (APC). At day 2 following restimulation, 10 U/ml of Lymphocult T-LF (LC; Biotest, Germany) was added as a source of IL-2 and at day 4, 1 ml of culture medium was removed and replaced with fresh medium and 10 U/ml of LC. […] In all experiments T cells were rested for 6 to 7 days after the last addition of antigen and APC before testing.
T cells (5×10^4/well) were cultured in 96-well U bottom plates with either RGP extract at concentrations ranging from 25 to 200 μg/ml, purified Lol p 1 (0.12 to 2 μg/ml) or Lol p 5 (0.1 to 10 μg/ml), or Lol p 1 or Lol p 5 peptides (10 μg/ml), or medium alone (to determine background levels of proliferation), in the presence of washed autologous irradiated (3000 rads) PBMC (5×10^4/well). […] Cultures were incubated for 3 days, pulsed for the last 16 hours with ^3H-thymidine (1 μCi/well) and harvested onto glass fibre filters. ^3H-thymidine incorporation was measured by liquid scintillation spectroscopy and the mean counts per minute (cpm) for triplicate cultures was determined. Responses were considered positive if the stimulation index (SI, cpm of antigen-stimulated T cells divided by cpm of unstimulated T cells) was ≧2.5. Where several concentrations of allergen were tested (i.e., RGP, Lol p 1 and Lol p 5), values corresponding to the highest proliferation are shown.

[1] = Subject 4 TCL, Lol p 5 series (Table 4), RGP and Lol p 5 maximal response
[2] = Subject 11 TCL, Lol p 5 series (Table 4), RGP and Lol p 5 maximal response
[3] = Subject 12 TCL, Lol p 5 series (Table 4), RGP and Lol p 5 maximal response
[4] = Subject 35 TCL, Lol p 5 series (Table 4), RGP and Lol p 5 maximal response
[5] = Subject 2 TCL, Lol p 1 series (Table 3), RGP and Lol p 1 maximal response
[6] = Subject 20 TCL, Lol p 5 series (Table 4), RGP and Lol p 5 maximal response
[7] = Subject 11 TCL, Lol p 1 series (Table 3), RGP and Lol p 1 maximal response
[8] = Subject 7 TCL, Lol p 5 series (Table 4), RGP and Lol p 5 maximal response
[9] = Subject 3 TCL, Lol p 1 series (Table 3), RGP and Lol p 1 maximal response
[10] = Subject 36 TCL, Lol p 5 series (Table 4), RGP and Lol p 5 maximal response
[11] = Subject 37 TCL, Lol p 5 series (Table 4), RGP and Lol p 5 maximal response
[12] = Subject 12 TCL, Lol p 1 series (Table 3), RGP and Lol p 1 maximal response
[13] = Subject 4 TCL, Lol p 1 series (Table 3), RGP and Lol p 1 maximal response

Lol p 5 peptide 100-119: synthetic 20-mer, amino acids 100-119 of Lol p 5A (SEQ ID NO:2) (GATPEAKYDAFVTALTEALR; Lolium perenne)
Proliferative response, stimulation index [1]: 3.8 | Proliferative response, stimulation index [2]: 10.0 | Proliferative response, stimulation index [3]: 7.5 | Proliferative response, stimulation index [4]: 2.5

AGELELQFRRVKCKYPDDTK (Lolium perenne) [Lol p 1 peptide 127-146]
Proliferative response, stimulation index [5]: 5.8 | Proliferative response, stimulation index (Subject 13 TCL, Lol p 1 series (Table 3), RGP and Lol p 1 maximal response): 3.7 | Proliferative response, stimulation index (Subject 17 TCL, Lol p 1 series (Table 3), RGP and Lol p 1 maximal response): 3.0

Lol p 5 peptide 163-182: synthetic 20-mer, amino acids 163-182 of Lol p 5A (SEQ ID NO:2) (AANAAPTNDKFTVFESAFNK; Lolium perenne)
Proliferative response, stimulation index [6]: 2.5

Lol p 5 peptide 91-110: synthetic 20-mer, amino acids 91-110 of Lol p 5A (SEQ ID NO:2) (YDVAYKAAEGATPEAKYDAF; Lolium perenne)
T cell responses to Lol p 5 peptides: nor were T cell responses detected

Lol p 1 peptide 221-240: synthetic 20-mer, amino acids 221-240 of Lol p 1A (SEQ ID NO:1) (KSEVEDVIPEGWKADTSYSA; Lolium perenne)
Proliferative response, stimulation index [7]: 3.3

Lol p 5 peptide 82-101: synthetic 20-mer, amino acids 82-101 of Lol p 5A (SEQ ID NO:2) (GLIPKLDTAYDVAYKAAEGA; Lolium perenne)
T cell responses to Lol p 5 peptides: nor were T cell responses detected

Lol p 5 peptide 127-146: synthetic 20-mer, amino acids 127-146 of Lol p 5A (SEQ ID NO:2) (VHAVKPATEEVPAAKIPTGE; Lolium perenne)
T cell responses to Lol p 5 peptides: nor were T cell responses detected

AFSESSKGLLATSAAKAPGL (Lolium perenne) [Lol p 5 peptide 64-83]
Proliferative response, stimulation index [1]: 2.8 | Proliferative response, stimulation index [8]: 2.8

Lol p 1 peptide 82-101: synthetic 20-mer, amino acids 82-101 of Lol p 1A (SEQ ID NO:1) (SCSGEAVTVTITDDNEEPIA; Lolium perenne)
Proliferative response, stimulation index [9]: 3.6 | Proliferative response, stimulation index [7]: 3.6

VAAAANAPPADKFKIFEAAF (Lolium perenne) [Lol p 5 peptide 46-65]
Proliferative response, stimulation index [3]: 6.5 | Proliferative response, stimulation index [10]: 2.7 | Proliferative response, stimulation index [11]: 6.6

Lol p 1 peptide 208-227: synthetic 20-mer, amino acids 208-227 of Lol p 1A (SEQ ID NO:1) (GPFTVRYTTEGGTKSEVEDV; Lolium perenne)
Lol p 1 peptides recognised by one or more TCL: exception | Proliferative response, stimulation index [9]: 4.4

Lol p 1 peptide 55-74: synthetic 20-mer, amino acids 55-74 of Lol p 1A (SEQ ID NO:1) (TGCGNTPIFKDGRGCGSCFE; Lolium perenne)
Lol p 1 peptides recognised by one or more TCL: exception

Lol p 1 peptide 163-182: synthetic 20-mer, amino acids 163-182 of Lol p 1A (SEQ ID NO:1) (ILVKYVDGDGDVVAVDIKEK; Lolium perenne)
Lol p 1 peptides recognised by one or more TCL: exception | Proliferative response, stimulation index (Subject 23 TCL, Lol p 1 series (Table 3), RGP and Lol p 1 maximal response): 4.2

Lol p 1 peptide 46-65: synthetic 20-mer, amino acids 46-65 of Lol p 1A (SEQ ID NO:1) (VDKAPFNGMTGCGNTPIFKD; Lolium perenne)
Proliferative response, stimulation index (Subject 5 TCL, Lol p 1 series (Table 3), RGP and Lol p 1 maximal response): 8.4 | Proliferative response, stimulation index [12]: 4.0

KFTVFESAFNKALNECTGGA (Lolium perenne) [Lol p 5 peptide 172-191]
Proliferative response, stimulation index [1]: 2.7 | Proliferative response, stimulation index [3]: 2.5 | Proliferative response, stimulation index [6]: 3.0

Lol p 1 peptide 91-110: synthetic 20-mer, amino acids 91-110 of Lol p 1A (SEQ ID NO:1)
Proliferative response, stimulation index [13]: 3.6 | Proliferative response, stimulation index [7]: 4.9

Lol p 5 peptide 181-200: synthetic 20-mer, amino acids 181-200 of Lol p 5A (SEQ ID NO:2) (NKALNECTGGAYETYKFIPS; Lolium perenne)
Proliferative response, stimulation index [6]: 3.4

Lol p 1 peptide 118-137: synthetic 20-mer, amino acids 118-137 of Lol p 1A (SEQ ID NO:1) (KGEEQKLRASAGELELQFRR; Lolium perenne)
Proliferative response, stimulation index [5]: 6.2 | Proliferative response, stimulation index [12]: 2.5

PEVKYAVFEAALTKAITAMT (Lolium perenne) [Lol p 5 peptide 217-236]
Proliferative response, stimulation index [2]: 5.4 | Proliferative response, stimulation index [6]: 4.5 | Proliferative response, stimulation index (Subject 27 TCL, Lol p 5 series (Table 4), RGP and Lol p 5 maximal response, † affinity purified Lol p 5): 9.5 | Proliferative response, stimulation index [4]: 3.5 | Proliferative response, stimulation index [10]: 3.5 | Proliferative response, stimulation index [11]: 11.0

Lol p 5 peptide 109-128: synthetic 20-mer, amino acids 109-128 of Lol p 5A (SEQ ID NO:2) (AFVTALTEALRVIAGALEVH; Lolium perenne)
T cell responses to Lol p 5 peptides: nor were T cell responses detected

FEIKCTKPESCSGEAVTVTI (Lolium perenne) [Lol p 1 peptide 73-92]
Proliferative response, stimulation index (Subject 1 TCL, Lol p 1 series (Table 3), RGP and Lol p 1 maximal response): 3.9 | Proliferative response, stimulation index [13]: 2.9 | Proliferative response, stimulation index [7]: 2.6

Lol p 1 peptide 199-218: synthetic 20-mer, amino acids 199-218 of Lol p 1A (SEQ ID NO:1) (RIDTPDKLTGPFTVRYTTEG; Lolium perenne)
Lol p 1 peptides recognised by one or more TCL: exception

Lol p 1 peptide 145-164: synthetic 20-mer, amino acids 145-164 of Lol p 1A (SEQ ID NO:1) (GTKPTFHVEKASNPNYLAIL; Lolium perenne)
Proliferative response, stimulation index [12]: 4.5

Lol p 1 peptide 217-236: synthetic 20-mer, amino acids 217-236 of Lol p 1A (SEQ ID NO:1) (EGGTKSEVEDVIPEGWKADT; Lolium perenne)
Proliferative response, stimulation index [9]: 3.3 | Proliferative response, stimulation index [7]: 4.4

Lol p 5 peptide 136-155: synthetic 20-mer, amino acids 136-155 of Lol p 5A (SEQ ID NO:2) (EVPAAKIPTGELQIVDKIDA; Lolium perenne)
T cell responses to Lol p 5 peptides: nor were T cell responses detected

Lol p 1 peptide 172-191: synthetic 20-mer, amino acids 172-191 of Lol p 1A (SEQ ID NO:1) (GDVVAVDIKEKGKDKWIELK; Lolium perenne)
Proliferative response, stimulation index (Subject 9 TCL, Lol p 1 series (Table 3), RGP and Lol p 1 maximal response): 2.5

Lol p 5 peptide 73-92: synthetic 20-mer, amino acids 73-92 of Lol p 5A (SEQ ID NO:2) (LATSAAKAPGLIPKLDTAYD; Lolium perenne)
Proliferative response, stimulation index [8]: 2.6
